The record followed here is US20260258004A1, “CRYSTALLINE FORMS OF (6S)-5-[4'-FLUORO-2-(TRIFLUOROMETHYL)BIPHENYL-4-YL]-6-METHYL-3,6- DIHYDRO-2H-l,3,4-OXADIAZIN-2-ONE” (Bayer Aktiengesellschaft, priority 2022, published 2026).

Holding throughout (assay type): physicochemical
Data set [1] is described as follows: Hygroscopicity classification applying the Pharmacopeia rules. An excerpt:
The shear cell was fully filled with a sample of powder of the compound of formula (I) thereby preventing condensing the powder. Both samples, sample 1 and sample 2, were classified as non-hydroscopic applying the Pharmacopeia rules.

Data set [2] in a line: Schulze ring shear test (flow properties). To be noted: normal load 1.5 kPa, 24° C., humidity 30%, no storage time. An excerpt:
The device used is the Schulze ring shear tester RST-XS.s for which a general technical product information is available on http://www.dietmar-schulze.de. We were using the shear cell XS-SV3. A statement referring to the testing procedure from the technical product information for RST-XS.s reads as follows: • “Testing procedure: The powder sample is contained in an annular shear cell “(FIG. 19B). • “A vertical load ? N] is applied through a thin loading rod on the annular lid. To shear the sample, the shear cell rotates relative to the lid (direction ω), and the torque necessary for shearing is determined from forces and F1 and F2 acting in a tie rod and a push rod. Following a well-defined procedure, which is executed computer-controlled, the flow properties are measured. […]
During the shear test, the bottom ring slowly rotated in the direction of the arrow with the low rotational speed ω of 2 rpm maximum. Rotation of the lid was prevented by the tension rods; the tensile forces F1 and F2 necessary to achieve this are measured by the load cells. From the normal and shear forces respectively stresses, the so-called yield locus was determined, which describes the flow behavior of a bulk solid. […]
The experimental data obtained were analyzed following the method described in Schulze, D. (2008). […] FIG. 21 provides the flow factor of both samples as calculated on basis of the ring shear experiment. […]

The nature of data set [3]: Determination of bulk density during shear tests. As to conditions: during shear test. How it is done: Because of the normal stress of 1.5 kPa applied on the top of the lid during the shear test the lid lowers into the shear cell and compresses the powder.
During the shear tests this lowering of the lid is measured and recorded. Since the volume of the bottom ring is known and weight of the sample measured before the beginning of the shear test the bulk density of the sample during the shear test is calculated
[formula] • with: • ρb,shear: Bulk density under shear • mges: total mass of shear cell including powder sample (w/o lid) • mcell: net mass of shear cell (w/o powder sample, w/o lid) • hc: height of the bottom ring • hl: lowering of lid • Acell: bottom area of shear cell
The calculation of the bulk density is done automatically with the evaluation software provided together with the shear tester.

Structures are written as SMILES.

With `C[C@@H]1OC(=O)NN=C1c1ccc(-c2ccc(F)cc2)c(C(F)(F)F)c1` [polymorph C, (6S)-5-[4′-Fluoro-2-(trifluoromethyl)biphenyl-4-yl]-6-methyl-3,6-dihydro-2H-1,3,4-oxadiazin-2-one], the hygroscopicity classification entry in data set [1] is listed as “non-hydroscopic”. Further, the “flow behaviour (flow factor ffc)” value in data set [2] was “flowing a bit better than polymorph A”. Also, in data set [3], the “bulk density compared with sample 1 (FIG. 22)” value was “significantly higher”. Besides, in data set [3] (normal stress 1.5 kPa), the bulk density entry is listed as “about 550 kg/m^3”.
